The source of these data is patent publication US20180050012A1, “Method for Inhibiting Growth of Ovarian Cancer Cells” (NEW BELLUS ENTERPRISES CO., LTD., priority 2016, published 2018).

The test system of one data set is LC3BII. The experiment in a line: Autophagy: immunohistochemical staining and western blot of LC3BII in ES-2 cells. It is filed as cell-based, human. Here is the method: (§1) Western blot is carried out in a standard procedure. The cells were washed twice with PBS and then a cell lysis solution was added. Cell debris was removed by centrifugation to collect protein degradation products. The protein concentrate was quantified by BCA assay kit (Pierce, Thermo Scientific, USA). Each sample was taken an equal amount of protein degradation products to 10% SDS-PAGE electrophoresis then transferred to a PVDF membrane, followed by the addition of anti-autophagy-related genes (Atg-7, Atg-5, and LC3BII) primary antibodies, and an anti-β-actin antibody as a control group. After the target proteins and the primary antibodies reacted overnight, the secondary antibody conjugated to HRP was added. Finally, the signals of the target proteins were determined by a luminescence-based imaging system (UVP, LLC, USA).
Presumably because cisplatin treatment initiated autophagy that enhanced viability. […] After 4-acetyl-antroquinonol B treatment, LC3BII was detected by immunohistochemical staining and western blot, showing that 4-acetyl-antroquinonol B did inhibit the LC3BII expression on autophagosomes (FIG. 2A). Cell autophagy would protect cancer cells from apoptosis caused by chemotherapies. Hydroxychloroquine was a widely used antiparasitic drug. […] Hydroxychloroquine increased the pH inside lysosomes thus made the lysosomes difficult to fuse with mature autophagosomes. The Inhibitory effect on autophagy could also solve the problem of cell autophagy resistance due to chemotherapies in cancer cells.
In general terms: In western blotting, separated proteins are transferred to a membrane and probed.

Data set [1] deals with ES-2 ovarian cancer cell line tumors. The data set is described as follows: ES-2 xenograft ovarian cancer animal model, tumor growth. The format is in vivo, NOD-SCID mice. As to conditions: for cell growth of ovarian cancer cell line ES-2 (tumor growth status), single agent: administration of either agent alone. Here is the method: In this study, tumors were induced by malignant ovarian cancer cell line ES-2 in NOD-SCID mice to establish malignant ovarian cancer animal models. The efficacy of oral and intraperitoneal administration of 4-acetyl-antroquinonol B for ovarian cancer was evaluated. In the ovarian cancer animal models, the malignant ovarian cancer cell line ES-2 was implanted subcutaneously to simulate the symptoms of malignant ovarian cancer. And the same time, the animals were fed with different concentrations of 4-acetyl-antroquinonol B every day for six weeks. The animals were sacrificed each week in the six weeks, respectively. […] In addition, different doses of 4-acetyl-antroquinonol B were administered orally (5 mg/kg and 10 mg/kg), and 1 dose (3 mg/kg) of cisplatin was injected intravenously each week (three doses total) when the tumor size was about 70-250 mm^3. […] Importantly, as for safety of 4-acetyl-antroquinonol B, the body weight changes of each group of mice were monitored weekly. […] Therefore, 4-acetyl-antroquinonol B was a potential adjuvant therapy agent in the treatment of ovarian cancer.
Immunodeficient mice (NOD/SCID mice, about 4-6 weeks old) were purchased from BioLASCO Taiwan Co., Ltd. The test was initiated after a week of domestication.
The selected tumor cells were ES2 malignant ovarian cancer cells. ES-2 cell line was derived from a ovarian cancer cell line which was highly resistant to chemotherapy drugs (e.g. cisplatin) and had poor prognosis. It was an anchorage-dependent cell line with strong transfer capacity. The culture medium was DMEM containing 10% fetal bovine serum (FBS), 1% non-essential amino acids (NEAA), and 1% antibiotics. The cells were incubated in a incubator at 37° C., 5% CO2 and subcultured once every 3 to 4 days.
The cells were treated with 0.05% trypsin-EDTA for 3 to 5 minutes to be suspended. The serum-containing medium was added to neutralize trypsin. The mixture was then centrifuged at 1000 rpm at 20° C. for 5 min. The supernatant was removed and the cell pellet was gently dispersed. The cells were resuspended in a suitable volume of culture medium. After mixing evenly, a little cell fluid was taken and cells were counted with a cytometer. The cells were diluted to a concentration of 10^7 cells per milliliter, and approximately 0.15 ml was dispensed into a 1.5 ml small centrifuge tube.
A solution of 4-acetyl-antroquinonol B was prepared in DMSO (250 mg/ml, DMSO was used as the solvent). After 4-acetyl-antroquinonol B was completely dissolved, the solution was dispensed as stock solution and stored at 4° C. Sterile normal saline solution was added to the stock to make a 500-fold dilution. The mixture was mixed evenly and then injected intraperitoneally. Cisplatin, a current clinical standard chemotherapy drug, was also an injection with a concentration of 50 mg/ml or 5 mg/ml, and both of which were injected intravenously without further dilution.
The day before tumor cells injection, zoletil 50 (10-fold dilution) and rompun 2% were mixed (1:1), and 0.25 ml of the mixture was injected intraperitoneally to each mouse for anesthesia. The mice were exposed to radiation to suppress their immunity after they were asleep. The irradiation dose was 0.75 Gy.
Mice were anesthetized with 2.5% isoflurane. The hair of injection site was shaved. The injection site was disinfected with 75% alcohol and povidone-iodine before injection. ES2 tumor cells were injected via 29G insulin needle. […]

On the set-up of data set [2]: species or system NOD-SCID mice. As to conditions: mouse, in vivo. The protocol:
In this study, tumors were induced by malignant ovarian cancer cell line ES-2 in NOD-SCID mice to establish malignant ovarian cancer animal models. The efficacy of oral and intraperitoneal administration of 4-acetyl-antroquinonol B for ovarian cancer was evaluated. In the ovarian cancer animal models, the malignant ovarian cancer cell line ES-2 was implanted subcutaneously to simulate the symptoms of malignant ovarian cancer. And the same time, the animals were fed with different concentrations of 4-acetyl-antroquinonol B every day for six weeks. The animals were sacrificed each week in the six weeks, respectively. […] Importantly, as for safety of 4-acetyl-antroquinonol B, the body weight changes of each group of mice were monitored weekly. […]
The ES-2 ovarian cancer cells in logarithmic phase were mixed with serum suspension and 0.1 ml (2×10^6 cells) was inoculated into hind legs of NOD-SCID immunodeficient mice to form tumors. […] Changes in tumor volume and body weight were monitored and recorded every week. […] The longest diameter (a) and the shortest diameter (b) of the tumor on mice were measured. The tumor size=(a*b2)/2, and the tumor growth curve was calculated.

In another data set the test system is cell autophagy. As to conditions: recent phase II clinical study; cited from earlier work.
In data set [3] the test system is ES-2 ovarian cancer cell line. The data set is described as follows: Cytotoxicity test (SRB assay, cell viability). The format is cell-based, human. From the text:
(§2) The ovarian cancer cell lines used in this study included: ES-2, OV-2008, and SKOV-3 obtained from American Type Culture Collection (ATCC). ES-2 was a clear cell carcinoma cell line with high resistance to platinum chemotherapies. Compared with other types of cancer, the clear cell carcinoma was found having poor prognosis in previous studies. SKOV-3 and OV-2008 were more benign cell lines compared to ES-2. Cell culture medium was McCoy5A culture medium (GIbco, 16600-082) supplemented with 1% antibiotic (Gibco, 15140) and 10% fetal bovine serum (FBS, Sigma, F7524). The cells were incubated in a standard incubator (Shel Lab, Sheldon Manufacturing, USA) at 37° C., 5% CO2.
(§3) All the tested cells were incubated in a medium containing 10% fetal bovine serum. When the cells grew to about eighty percent full, the old culture medium was drained and the cells were washed with PBS (phosphate buffered saline) buffer solution. Then, 10 ml of serum-free culture medium was added. Different drugs were added depending on experimental purposes. The reaction was carried out in a 37° C. constant temperature incubator.
(§4) The ovarian cancer cell lines ES-2, OV-2008, and SKOV-3 were placed in a 96-well culture plate (2000 cells/per well) and incubated overnight in 100 μl of complete DMEM. 50 μl of complete DMEM equivalent sample containing 4-acetyl-antroquinonol B (0.5-50 μM) was added to the different wells of the culture plate. In addition, only 100 μl of complete DMEM was added to the control group. After 2 days of culture, the number of cells in each well was determined by sulforhodamine B (a protein-binding dye). Briefly, the cells were fixed in 10% trichloroacetic acid and stained with 0.4% sulforhodamine B. After stained for 20 minutes, the cells were washed with 1% acetic acid. Thereafter, the cell-bound sulforhodamine B was dissolved in 10 mM Tris base. The absorbance (optical density) was determined at 562 nm by a microtiter plate reader.
On the technique in general: In SRB staining, fixed cells bind dye roughly in proportion to their protein.

Data set [4] concerns OV-2008 ovarian cancer cell line. The data set is described as follows: Cytotoxicity test (SRB assay, cell viability). The note with it: 0.5-50 μM, 2 days, FIG. 1B. It is filed as cell-based, human.
Description: as §2, §3, §4

The subject of data set [5] is SKOV-3 ovarian cancer cell line. The data set is described as follows: Cytotoxicity test (SRB assay, cell viability). It is filed as cell-based, human.
Description: as §2, §3, §4

A further data set has as its system Atg-7. The experiment in a line: Western blot of Atg-7 in treated cells. The format is cell-based, human. As to conditions: FIG. 2C. The protocol: as §1
In a further data set the test system is Atg-5. The data set is described as follows: Western blot of Atg-5 in treated cells. It is filed as cell-based, human. The note with it: FIG. 2C. Here is the method: as §1
A further data set concerns ES-2 cell line. The data set is described as follows: Clonogenicity analysis. It is filed as cell-based, human. As to conditions: FIG. 2D. Here is the method:
In a 6-well plate was seeded 600 cells per well. The culture medium was McCoy5A supplemented with 10% fetal bovine serum.

The next data set concerns AKT/mTOR/p70S6K. The data set is described as follows: Western blot of signaling pathway molecules in ES2 cells. The note with it: treatment for 0, 3, 6, and 12 hours, FIG. 3. It is filed as cell-based, human. Here is the method: as §1
The effect of 4-acetyl-arbutin-B on cell proliferation and autophagy of ovarian cancer cell line ES2 was observed, and the expression of autophagy-associated protein LC3BII and signaling pathway molecules AKT/mTOR/p70S6K were detected by western blot.

Consider `N.N.[Cl][Pt][Cl]` [cisplatin, reference compound], for which, in the data set on LC3BII (ES-2 cell line), the “autophagy phenomenon after cisplatin treatment” value is “more significant”. Also, the “cell growth of ovarian cancer cell line ES-2 (tumor growth status), single agent” value in data set [1] is given as “effectively inhibited”. The “body weight after sustained decrease from approximately 26 g” value in data set [2] was “about 21 g”.

For `CCN(CCO)CCCC(C)Nc1ccnc2cc(Cl)ccc12` (stereo not drawn) [hydroxychloroquine], the “inhibition of cell autophagy” value in the data set with cell autophagy is on record as “could successfully inhibit cell autophagy”.

Take `COC1=C(OC)[C@H](OC(C)=O)[C@H](C/C=C(\C)CC/C=C(\C)C[C@H]2C[C@H](C)C(=O)O2)[C@@H](C)C1=O` [4-acetyl-antroquinonol B]: the “growth of ES2 cells” value in data set [3] (20 uM, time-dependent effect, P<0.05) is given as “significantly inhibited”. Besides, the “response to 4-acetyl-antroquinonol B in cell viability test (cytotoxicity)” value in [3] (ES-2, 0.5-50 μM, 2 days, FIG. 1B) is “most pronounced response”; in data set [4], “responsive”. Besides, in data set [3] (ES-2 pretreated with 5 μM cisplatin, same concentration), the “cell viability compared with hydroxychloroquine” value is listed as “significantly lower than that in cells treated with hydroxychloroquine”. Also, in [5], the “inhibitory effect on ovarian cancer cell line” value is on record as “high inhibitory effect”. For the same molecule, in the data set on LC3BII (ES-2 cell line), the cell autophagy result is listed as “significantly inhibited”. Also, the “autophagosome maturation compared with hydroxychloroquine” value in the data set with LC3BII (ES-2 pretreated with 5 μM cisplatin, FIG. 2B) is “inhibited more than in cells treated with hydroxychloroquine”. Moreover, the “LC3BII expression on autophagosomes” value with LC3BII (immunohistochemical staining and western blot, FIG. 2A) was “did inhibit”. In addition, in the data set on Atg-7, the “expression of Atg-7” value is listed as “reduced”. Besides, the “expression of downstream Atg-5” value in the data set on Atg-5 is listed as “inhibited”. Also, in the data set on ES-2 cell line, the “cell colony formation efficiency” value is “decreased”. Besides, the “expressions of signaling pathway key molecules AKT/mTOR/p70S6K” value in the data set on AKT/mTOR/p70S6K is recorded as “significantly reduced”. The “cell growth of ovarian cancer cell line ES-2 (tumor growth status), single agent” value in [1] is given as “effectively inhibited”. Also, in data set [1] (oral 5 mg/kg and 10 mg/kg), the “inhibitory effect on tumor growth, administered alone” value is on record as “dose-dependent inhibitory effect”. For the same molecule, the “tumor severity versus control group” value in [1] (oral or intraperitoneal injection, daily for six weeks) is “significantly lower”. The “combined inhibitory effect on ovarian cancer with cisplatin and FOLFOX” value in data set [1] (ovarian cancer animal model) is “synergistic inhibitory effect”. Moreover, in data set [2], the “safety in the living body” value was “extremely high”.
